From PMC5049494, “Nitrotriazole-based acetamides and propanamides with broad spectrum antitrypanosomal activity” (European Journal of Medicinal Chemistry, 2016)
Where two headings read alike, the source gives them in different places.

Key:
[1] = tested on: T. cruzi, strain Tulahuen C4 amastigotes; test: In vitro activity against T. cruzi; type: cell-based; settings: for SI (T. c.): IC50 in L6 cells/IC50 in T. cruzi; for IC50: Trypanosoma cruzi, T. cruzi Tulahuen C4 amastigotes, means of 2 to 3 measurements, SD < 5%, read-out: T. c. IC50; for Bnz/comp: fold antichagasic potency relative to Bnz (T. cruzi IC50 ratio)
Experimental: (§3) The concentration of compound that inhibits parasite growth by 50% (IC50) was calculated from dose response curves for each parasite (Table 1). In addition, compounds were tested for toxicity in L6 rat skeletal myoblasts, the host cells for T. cruzi amastigotes, in order to calculate a selectivity index for each parasite [SI = IC50L6/IC50parasite]
(§4) In vitro activity against T. cruzi, T. b. rhodesiense, L. donovani and cytotoxicity assessment using L6 cells (rat skeletal myoblasts) was determined using a 96-well plate format as previously described [37]. Data were analyzed with the graphic program Softmax Pro (Molecular Devices, Sunnyvale, CA, USA), which calculated IC50 values by linear regression from the sigmoidal dose inhibition curves.

[2] = Cytotoxicity in the host L6 cells; type: cell-based, rat; settings: rat, L6 cells (rat skeletal myoblasts); cytotoxicity in host L6 cells; read-out: Cyt. L6 IC50
Experimental: (§1) Compounds in Table 1 were screened for anti-parasitic activity against three trypanosomatids: T. cruzi, T. b. rhodesiense and Leishmania donovani and compared with previously made analogs shown in orange and designated with a. […] In addition, compounds were tested for toxicity in L6 rat skeletal myoblasts, the host cells for T. cruzi amastigotes, in order to calculate a selectivity index for each parasite [SI = IC50L6/IC50parasite] (Table 1). The TDR (Special Programme for Research and Training in Tropical Diseases, World Health Organization) criteria were adopted to interpret antiparasitic activity and selectivity.
(§2) In vitro activity against T. cruzi, T. b. rhodesiense, L. donovani and cytotoxicity assessment using L6 cells (rat skeletal myoblasts) was determined using a 96-well plate format as previously described. Data were analyzed with the graphic program Softmax Pro (Molecular Devices, Sunnyvale, CA, USA), which calculated IC50 values by linear regression from the sigmoidal dose inhibition curves.

[3] = tested on: L. donovani axenic, strain MHOM-ET-67/L82 amastigotes; test: In vitro activity against L. donovani; type: cell-based; settings: for IC50: Leishmania donovani, L. donovani axenic amastigotes MHOM-ET-67/L82, means of 2 to 3 measurements, SD < 5%, read-out: L.d. IC50; for SI (L.d.): IC50 in L6 cells/IC50 in L. donovani
Experimental: as §3, §4

[4] = tested on: bloodstream form T.b. brucei wild type; test: T. brucei antiproliferating assay, wild type; type: cell-based; settings: means from 4 experiments ± SD
Experimental: The BSF of T. brucei parasites were seeded at 1 × 10^3 mL^−1 in 200 μL of growth medium containing different concentrations of nitroheterocycle. Where appropriate, induction of the TbNTR was carried out by adding tetracycline (1 μg/mL). After incubation for 3 days at 37 °C, 20 μL of Alamar blue was added to each well and the plates incubated for a further 16 h. The cell density of each culture was determined as described before and the IC50 established.

[5] = tested on: T.b. rhodesiense, strain STIB 900 trypomastigotes; test: In vitro activity against T. b. rhodesiense; type: cell-based; settings: for SI (T.b.r.): IC50 in L6 cells/IC50 in T.b. rhodesiense; for IC50: Trypanosoma brucei, read-out: T.b.r. IC50; for fold more potent against T. b. rhodesiense than the corresponding acetamide: propanamide vs acetamide analog; for anti-HAT activity class (TDR criteria): T. b. rhodesiense
Experimental: as §1, §2

[6] = tested on: bloodstream form T.b. brucei recombinant parasites expressing wild type (-tet) or elevated (+tet) levels of TbNTR; test: microbe, parasite or virus in culture; type: cell-based; settings: for IC50: Trypanosoma brucei; for Ratio –tet/+tet: ratio of IC50 values -tet/+tet
Experimental: The BSF of T. brucei parasites were seeded at 1 × 10^3 mL^−1 in 200 μL of growth medium containing different concentrations of nitroheterocycle. Where appropriate, induction of the TbNTR was carried out by adding tetracycline (1 μg/mL). After incubation for 3 days at 37 °C, 20 μL of Alamar blue was added to each well and the plates incubated for a further 16 h. The cell density of each culture was determined as described before [20] and the IC50 established.

[7] = tested on: T. cruzi, strain Tulahuen C4 amastigotes; settings: cited from earlier work; for Bnz/comp: fold potency relative to Bnz
[8] = tested on: L. donovani axenic, strain MHOM-ET-67/L82 amastigotes; parameters: method as in PMID 26344593, PMID 25580906; settings: cited from earlier work; for IC50: previously evaluated compounds (orange, designated a), read-out: L.d. IC50
[9] = tested on: T.b. rhodesiense, strain STIB 900 trypomastigotes; parameters: method as in PMID 26344593, PMID 25580906; settings: cited from earlier work; for anti-HAT activity class (TDR criteria): T. b. rhodesiense, previously evaluated acetamides; for IC50: previously evaluated compounds (orange, designated a), read-out: T.b.r. IC50
[10] = tested on: L6 cells (rat skeletal myoblasts); parameters: method as in PMID 26344593, PMID 25580906; settings: previously evaluated compounds (orange, designated a); read-out: Cyt. L6 IC50; cited from earlier work
[11] = tested on: transgenic T. cruzi parasites expressing firefly luciferase; type: in vivo, Balb/c mice; settings: for parasite load after 10 days of treatment: acute murine model, p < 0.0001; for parasitic level after 5-day treatment: compared to untreated control
Experimental: A fast luminescence assay was used in an acute infected murine model, in which transgenic T. cruzi parasites expressing firefly luciferase were injected in 5 week-old Balb/c mice. Mice were injected with D-luciferin before imaging. Groups of 5 mice/group were treated i.p. for 10 consecutive days with each compound, at 13 or 15 mg/kg/day. […] The mean ratio of parasite levels was calculated after 5 and 10 days of treatment.
For in vivo studies, a Brazilian strain trypomastigotes from transgenic T. cruzi parasites expressing firefly luciferase were used as described before. Briefly, parasites (10^5 trypomastigotes) were injected in 5 week-old Balb/c mice (Taconic) and three days later mice were anesthesized by inhalation of isofluorane, followed by an injection with 150 mg/kg of D-luciferin potassium-salt in PBS. Mice were imaged 5–10 min after injection of luciferin with an IVIS 100 (Xenogen, Alameda, CA) and the data acquisition and analysis were performed with the software LivingImage (Xenogen) as described before. Treatment with test compounds started 4 days post infection at 13 or 15 mg/kg/day × 10 days, given i.p. The vehicle control was 2% methylcellulose +0.5% Tween 80 and groups of 5 mice/group were used. Mice were imaged after 5 and 10 days of treatment. The ratio of parasite levels was calculated for each animal dividing the luciferase signal after treatment by the luciferase signal on the first imaging (before treatment). Mean values of all animals in each group ± SD were used for plotting.

[12] = Trypanosoma brucei, read-out: IC50 value T.b. brucei Wild type, bloodstream form
[13] = T.b. rhodesiense STIB 900 trypomastigotes, means of 2 to 3 measurements, SD < 5%
[14] = read-out: IC50 value T.b. brucei TbNTR (+tet)
[15] = read-out: IC50 value T.b. brucei TbNTR (-tet)
[16] = IC50 L6/IC50 parasite, previously evaluated compounds

Compound	IC50 [1]	Bnz/comp [1]	IC50 [2]	IC50 [3]	melting point	IC50 [4, 12]	SI (T.b.r.) [5]	IC50 [5, 13]	IC50 [6, 14]	IC50 [6, 15]	further results
O=C(CCn1cnc([N+](=O)[O-])n1)Nc1ccc(Oc2ccccc2)cc1 [Compound 8, 3-(3-Nitro-1H-1,2,4-triazol-1-yl)-N-(4-phenoxyphenyl)propanamide]	79 nM	28	31600 nM	2330 nM	108 to 110 °C	140 ± 10 nM	203	156 nM	410 ± 10 nM	1470 ± 30 nM	SI (T. c.) [1]: 398; fold more potent against T. b. rhodesiense than the corresponding acetamide [5]: 17.4 fold
O=C(Cn1cnc([N+](=O)[O-])n1)Nc1cccc(OCc2ccccc2)c1 [Compound 11a]											Bnz/comp ([7]; previously evaluated compounds): 17; IC50 [8]: 3360 nM; anti-HAT activity class (TDR criteria) [9]: moderately active (IC50 between 0.5 and 6.0 μM); IC50 [9]: 4860 nM; IC50 [10]: 68400 nM
O=C(Cn1cnc([N+](=O)[O-])n1)Nc1ccc(Oc2ccc(Cl)cc2)cc1 [Compound 6a]											SI (T. c.) [7, 16]: 3615; Bnz/comp ([7]; previously evaluated compounds): 254; SI (L.d.) [8, 16]: 853; IC50 [8]: 34 nM; IC50 [9]: 1330 nM; IC50 [10]: 28900 nM
O=C(Cn1cnc([N+](=O)[O-])n1)Nc1cccc(-c2ccccc2)c1 [Compound 10a]											IC50 [10]: 45300 nM
CN(C(=O)Cn1ccnc1[N+](=O)[O-])c1ccc(C(F)(F)F)cc1 [Compound 3, N-methyl-2-(2-nitro-1H-imidazol-1-yl)-N-(4-(trifluoromethyl)phenyl)acetamide]	49400 nM		189000 nM	47700 nM	45 to 47 °C		1.9	97700 nM			antichagasic activity class (TDR criteria) ([1]; T. cruzi): moderately active (IC50 between 4.0 and 60 μM); SI (L.d.) [3]: 3.96; anti-HAT activity class (TDR criteria) [5]: inactive
Nc1nc(N)nc(Nc2ccc([As]3SCC(CO)S3)cc2)n1 (stereo not drawn) [Melars., Melarsoprol, reference compound]											IC50 [5]: 9 ± 1 nM
O=C(CCn1cnc([N+](=O)[O-])n1)Nc1cc(-c2ccc(F)cc2)on1 [Compound 12, N-(5-(4-fluorophenyl)isoxazol-3-yl)-3-(3-nitro-1H-1,2,4-triazol-1-yl)propanamide]	364 nM	6	> 289000 nM	7790 nM	215 °C (dec.)	760 ± 100 nM	>201	1440 nM	400 nM	1610 ± 100 nM	SI (T. c.) [1]: >794; SI (L.d.) [3]: >37; antileishmanial activity class (TDR criteria) ([3]; L. donovani): inactive; anti-HAT activity class (TDR criteria) [5]: moderately active (IC50 between 0.5 and 6.0 μM); fold more potent against T. b. rhodesiense than the corresponding acetamide [5]: 5.6 fold; Ratio –tet/+tet [6]: 4.1
CC1CS(=O)(=O)CCN1/N=C/c1ccc([N+](=O)[O-])o1 (stereo not drawn) [nfx, Nifurtimox, reference compound]									869 ± 46 nM	6360 ± 119 nM	IC50 ([4]; Trypanosoma brucei, bloodstream form, read-out: IC50 value T.b. brucei Wild type): 3980 ± 150 nM; Ratio –tet/+tet [6]: 7.3
O=C(CCn1cnc([N+](=O)[O-])n1)Nc1ccc(Oc2ccc(F)cc2)cc1 [Compound 7, N-(4-(4-fluorophenoxy)phenyl)-3-(3-nitro-1H-1,2,4-triazol-1-yl)propanamide]	40 nM	55	23400 nM	1180 nM		~650 nM		167 nM	330 ± 30 nM	680 ± 70 nM	toxicity symptoms in treated mice ([11]; 13 mg/kg/day i.p. x 10 days): No toxicity symptoms were observed; parasite load after 10 days of treatment ([11]; 13 mg/kg/day i.p. x 10 days): undetectable levels; parasitic level after 5-day treatment ([11]; 13 mg/kg/day i.p.): Statistically significant reduction in parasitic level; IC50 ([4]; read-out: IC50 value T.b. brucei Wild type, bloodstream form): 570 ± 50 nM
O=C(Cn1cnc([N+](=O)[O-])n1)NCc1ccc(C(F)(F)F)cc1 [Compound 2a]											IC50 ([7]; previously evaluated compounds (orange, designated a), read-out: T. c. IC50): 970 nM; IC50 [8]: 10400 nM; anti-HAT activity class (TDR criteria) [9]: inactive; IC50 [9]: 6470 nM; fold more potent against T. b. rhodesiense than 2 ([5]; compared with N-methyl acetamide 2): 5.8 fold
O=C(CCn1cnc([N+](=O)[O-])n1)Nc1cccc(-c2ccccc2)c1 [Compound 10, N-([1,1′-biphenyl]-3-yl)-3-(3-nitro-1H-1,2,4-triazol-1-yl)propanamide]	80 nM	28	36200 nM	3550 nM	174 to 176 °C	6660 ± 920 nM	134	270 nM	230 ± 20 nM	5580 ± 620 nM	SI (T. c.) [1]: 452; fold more potent against T. cruzi than the acetamide analog ([1]; propanamide vs acetamide analog): 2.2 fold; SI (L.d.) [3]: 10.2; fold more potent against T. b. rhodesiense than the corresponding acetamide [5]: 214 fold
O=C(Cn1ccnc1[N+](=O)[O-])NCc1ccccc1 [Bnz, Benznidazole, reference compound]											parasite load after 10 days of treatment ([11]; 15 mg/kg/day i.p. x 10 days): undetectable levels; parasitic level after 5-day treatment ([11]; 15 mg/kg/day i.p.): Statistically significant reduction in parasitic level
